Experimental data published in ChEMBL document CHEMBL1144651, “Concise synthesis of dideoxy-epigallocatechin gallate (DO-EGCG) and evaluation of its anti-influenza virus activity” (Bioorg Med Chem Lett, 2007).

Tested on: Influenza A virus
Test: Antiviral activity against Influenza A virus (A/Memphis/1/71(H3N2)) in MDCK cells after 16 hrs by focus forming assay
Type: functional, organism-based, Influenza A virus (A/Memphis/1/1971(H3N2))

Row | Structure (SMILES) | IC50 [µM]
1 | O=C(O[C@@H]1Cc2ccccc2O[C@@H]1c1cc(O)c(O)c(O)c1)c1cc(O)c(O)c(O)c1 | 11.9
2 | O=C(O[C@@H]1Cc2c(O)cc(O)cc2O[C@@H]1c1cc(O)c(O)c(O)c1)c1cc(O)c(O)c(O)c1 [EPIGALOCATECHIN GALLATE] | 41.2
